According to patent US11999716B2, “WDR5 inhibitors and modulators” (priority 2018, dated 2024):

tested on: MV4:11 human cancer cell lines; assay: Cellular viability / anti-proliferative activity, CellTiter-Glo, 5 day protocol; format: cell-based; conditions: Homo sapiens, MV4-11, 120 h, MV4:11 cells; 5 day incubation; CellTiter-Glo; mean of minimum two replicates; read-out: GI50 on cellular proliferation of MV4:11 human cancer cell lines
Method in brief: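 Compounds were tested over 22 two-fold dilutions starting at 30 μM in 0.3% DMSO, with 200 cells per well (7200 cells/mL). Viability was measured by CellTiter-Glo luminescence at day 5.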

First: COc1ccnc(CN2CCc3c(cc(Cn4ccccc4=N)cc3-c3cn(C)nc3C)C2=O)c1 [Example 117, 5-(1,3-Dimethyl-1H-pyrazol-4-yl)-7-((2-iminopyridin-1(2H)-yl)methyl)-2-((4-methoxypyridin-2-yl)methyl)-3,4-dihydroisoquinolin-1(2H)-one]
Second: COc1ccnc(CN2CCc3c(cc(Cn4ccnc4C4CC4)cc3-c3cn(C)nc3C)C2=O)c1 [Example 9, 7-((2-Cyclopropyl-1H-imidazol-1-yl)methyl)-5-(1,3-dimethyl-1H-pyrazol-4-yl)-2-((4-methoxypyridin-2-yl)methyl)-3,4-dihydroisoquinolin-1(2H)-one]
The GI50 of the first is higher: greater than 938 nM for the first, 553 nM for the second.

First: CCn1cc(-c2cc(CN3CCOC3=N)cc3c2CCN(Cc2cn(C)nc2C)C3=O)c(C(F)(F)F)n1 [Example 98, 2-((1,3-Dimethyl-1H-pyrazol-4-yl)methyl)-5-(1-ethyl-3-(trifluoromethyl)-1H-pyrazol-4-yl)-7-((2-iminooxazolidin-3-yl)methyl)-3,4-dihydroisoquinolin-1(2H)-one]
Second: CCn1cc(-c2cc(Cn3ccnc3C3CC3)cc3c2CCN(Cc2cc(C)nn2C)C3=O)c(C(F)(F)F)n1 [Example 14, 7-((2-Cyclopropyl-1H-imidazol-1-yl)methyl)-2-((1,3-dimethyl-1H-pyrazol-5-yl)methyl)-5-(1-ethyl-3-(trifluoromethyl)-1H-pyrazol-4-yl)-3,4-dihydroisoquinolin-1(2H)-one]
The GI50 of the first is lower: 207 nM for the first, greater than 938 nM for the second.

`COc1cc(CN2CCc3c(cc(Cn4ccnc4C)cc3-c3ccc(F)cc3C)C2=O)cc(OC)c1` [Example 6, 2-(3,5-Dimethoxybenzyl)-5-(4-fluoro-2-methylphenyl)-7-((2-methyl-1H-imidazol-1-yl)methyl)-3,4-dihydroisoquinolin-1(2H)-one] and `CCc1nccn1Cc1cc2c(c(-c3cc(C)nc(C)c3)c1)CCN(Cc1cc(OC)cc(OC)c1)C2=O` [Example 155, 2-(3,5-Dimethoxybenzyl)-5-(2,6-dimethylpyridin-4-yl)-7-((2-ethyl-1H-imidazol-1-yl)methyl)-3,4-dihydroisoquinolin-1(2H)-one] are within 1.5-fold of each other in GI50: 301 nM for the first, 407 nM for the second.

`COc1ccnc(CN2CCc3c(cc(Cn4ccn(C)c4=N)cc3-c3ccc(F)cc3C)C2=O)c1` [Example 52, 5-(4-fluoro-2-methylphenyl)-7-((2-imino-3-methyl-2,3-dihydro-1H-imidazol-1-yl)methyl)-2-((4-methoxypyridin-2-yl)methyl)-3,4-dihydroisoquinolin-1(2H)-one] and `Cc1cc([C@H](C)N2CCc3c(cc(Cn4ccn(C)c4=N)cc3-c3ccc(F)cc3C)C2=O)ccc1F` [Example 40, (S)-5-(4-Fluoro-2-methylphenyl)-2-(1-(4-fluoro-3-methylphenyl)ethyl)-7-((2-imino-3-methyl-2,3-dihydro-1H-imidazol-1-yl)methyl)-3,4-dihydroisoquinolin-1(2H)-one] cannot be ordered by GI50: less than 50 nM for the first, less than 50 nM for the second.

First: CCc1ccnc(CN2CCc3c(cc(Cn4cc(C)nc4C)cc3-c3cn(CC)nc3C(F)(F)F)C2=O)c1 [Example 22, 7-((2,4-Dimethyl-1H-imidazol-1-yl)methyl)-5-(1-ethyl-3-(trifluoromethyl)-1H-pyrazol-4-yl)-2-((4-ethylpyridin-2-yl)methyl)-3,4-dihydroisoquinolin-1(2H)-one]
Second: COc1ccnc(CN2CCc3c(cc(Cn4cc(F)sc4=N)cc3-c3cn(C)nc3C(F)(F)F)C2=O)c1 [Example 103, 7-((5-Fluoro-2-iminothiazol-3(2H)-yl)methyl)-2-((4-methoxypyridin-2-yl)methyl)-5-(1-methyl-3-(trifluoromethyl)-1H-pyrazol-4-yl)-3,4-dihydroisoquinolin-1(2H)-one]
The GI50 of the first is lower: 145 nM for the first, greater than 938 nM for the second.

Going from `COc1cc(CN2CCc3c(cc(Cn4cnn(C)c4=N)cc3-c3ncc(F)cc3C)C2=O)cc(OC)c1` [Example 124, 2-(3,5-Dimethoxybenzyl)-5-(5-fluoro-3-methylpyridin-2-yl)-7-((5-imino-1-methyl-1,5-dihydro-4H-1,2,4-triazol-4-yl)methyl)-3,4-dihydroisoquinolin-1(2H)-one] to `COc1cc(CN2CCc3c(cc(Cn4ccn(C)c4=N)cc3-c3cn(C)nc3C(F)(F)F)C2=O)cc(OC)c1` [Example 39, 2-(3,5-Dimethoxybenzyl)-7-((2-imino-3-methyl-2,3-dihydro-1H-imidazol-1-yl)methyl)-5-(1-methyl-3-(trifluoromethyl)-1H-pyrazol-4-yl)-3,4-dihydroisoquinolin-1(2H)-one], the GI50 falls from 935 nM to less than 50 nM.

Going from `COc1ccnc([C@H](C)N2CCc3c(cc(Cn4ccnc4C)cc3-c3ccncc3C(F)(F)F)C2=O)c1` [Example 248, (S)-2-(1-(4-Methoxypyridin-2-yl)ethyl)-7-((2-methyl-1H-imidazol-1-yl)methyl)-5-(3-(trifluoromethyl)pyridin-4-yl)-3,4-dihydroisoquinolin-1(2H)-one] to `COc1ccnc([C@H](C)N2CCc3c(cc(Cn4ccnc4C)cc3-c3ccc(F)cc3C)C2=O)c1` [Example 168, (S)-5-(4-Fluoro-2-methylphenyl)-2-(1-(4-methoxypyridin-2-yl)ethyl)-7-((2-methyl-1H-imidazol-1-yl)methyl)-3,4-dihydroisoquinolin-1(2H)-one], the GI50 falls from 55 nM to less than 50 nM.

Going from `CCn1cc(-c2cc(Cn3ccn(C)c3=N)cc3c2CCN([C@@H](C)c2cc(OC)ccn2)C3=O)c(C(F)(F)F)n1` [Example 66, (S)-5-(1-Ethyl-3-(trifluoromethyl)-1H-pyrazol-4-yl)-7-((2-imino-3-methyl-2,3-dihydro-1H-imidazol-1-yl)methyl)-2-(1-(4-methoxypyridin-2-yl)ethyl)-3,4-dihydroisoquinolin-1(2H)-one] to `CCn1cc(-c2cc(Cc3nccn3C)cc3c2CCN([C@@H](C)c2cc(OC)ccn2)C3=O)c(C(F)(F)F)n1` [Example 254, (S)-5-(1-Ethyl-3-(trifluoromethyl)-1H-pyrazol-4-yl)-2-(1-(4-methoxypyridin-2-yl)ethyl)-7-((1-methyl-1H-imidazol-2-yl)methyl)-3,4-dihydroisoquinolin-1(2H)-one], the GI50 rises from less than 50 nM to 1340 nM.

Compared with `COc1ccnc([C@H](C2CC2)N2CCc3c(cc(Cn4ccnc4)cc3-c3cn(C)nc3C)C2=O)c1` [Example 211, (S)-7-((1H-Imidazol-1-yl)methyl)-2-(cyclopropyl(4-methoxypyridin-2-yl)methyl)-5-(1,3-dimethyl-1H-pyrazol-4-yl)-3,4-dihydroisoquinolin-1(2H)-one], `Cc1cc([C@H](C)N2CCc3c(cc(Cn4ccnc4C)cc3-c3cn(C)nc3C)C2=O)ccc1F` [Example 146, (S)-5-(1,3-Dimethyl-1H-pyrazol-4-yl)-2-(1-(4-fluoro-3-methylphenyl)ethyl)-7-((2-methyl-1H-imidazol-1-yl)methyl)-3,4-dihydroisoquinolin-1(2H)-one] is lower in GI50: 84 nM for the first, less than 50 nM for the second.

Going from `COc1ccnc([C@H](C)N2CCc3c(cc(Cn4ccn(C(F)F)c4=N)cc3-c3cn(C)nc3C(F)(F)F)C2=O)c1` [Example 72, (S)-7-((3-(Difluoromethyl)-2-imino-2,3-dihydro-1H-imidazol-1-yl)methyl)-2-(1-(4-methoxypyridin-2-yl)ethyl)-5-(1-methyl-3-(trifluoromethyl)-1H-pyrazol-4-yl)-3,4-dihydroisoquinolin-1(2H)-one] to `CCn1cc(-c2cc(Cn3ccnc3C(C)C)cc3c2CCN([C@@H](C)c2cc(OC)ccn2)C3=O)c(C(F)(F)F)n1` [Example 162, (S)-5-(1-Ethyl-3-(trifluoromethyl)-1H-pyrazol-4-yl)-7-((2-isopropyl-1H-imidazol-1-yl)methyl)-2-(1-(4-methoxypyridin-2-yl)ethyl)-3,4-dihydroisoquinolin-1(2H)-one], the GI50 rises from less than 50 nM to 13400 nM.

Going from `Cc1nccn1Cc1cc2c(c(-c3cn(C)nc3C(F)(F)F)c1)CCN(Cc1ccccn1)C2=O` [Example 180, 7-((2-Methyl-1H-imidazol-1-yl)methyl)-5-(1-methyl-3-(trifluoromethyl)-1H-pyrazol-4-yl)-2-(pyridin-2-ylmethyl)-3,4-dihydroisoquinolin-1(2H)-one] to `Cc1nccn1Cc1cc2c(c(-c3cn(C)nc3C(F)(F)F)c1)CCN(Cc1cccc(C(F)(F)F)c1)C2=O` [Example 221, 7-((2-Methyl-1H-imidazol-1-yl)methyl)-5-(1-methyl-3-(trifluoromethyl)-1H-pyrazol-4-yl)-2-(3-(trifluoromethyl)benzyl)-3,4-dihydroisoquinolin-1(2H)-one], the GI50 falls from 1590 nM to 421 nM (3.8-fold).

First: Cc1nccn1Cc1cc2c(c(-c3cn(C)nc3C(F)(F)F)c1)CCN([C@@H](C)c1cc(C3CC3)nn1C)C2=O [Example 239, (S)-2-(1-(3-Cyclopropyl-1-methyl-1H-pyrazol-5-yl)ethyl)-7-((2-methyl-1H-imidazol-1-yl)methyl)-5-(1-methyl-3-(trifluoromethyl)-1H-pyrazol-4-yl)-3,4-dihydroisoquinolin-1(2H)-one]
Second: Cc1cncc([C@@H](C)N2CCc3c(cc(Cn4ccnc4C)cc3-c3cn(C)nc3C(F)(F)F)C2=O)c1 [Example 197, (R)-7-((2-Methyl-1H-imidazol-1-yl)methyl)-5-(1-methyl-3-(trifluoromethyl)-1H-pyrazol-4-yl)-2-(1-(5-methylpyridin-3-yl)ethyl)-3,4-dihydroisoquinolin-1(2H)-one]
The GI50 of the first is higher: 573 nM for the first, less than 50 nM for the second.

First: Cc1nccn1Cc1cc2c(c(-c3cn(C)nc3C(F)(F)F)c1)CCN(c1cnccc1-c1ccccc1)C2=O [Example 246, 7-((2-Methyl-1H-imidazol-1-yl)methyl)-5-(1-methyl-3-(trifluoromethyl)-1H-pyrazol-4-yl)-2-(4-phenylpyridin-3-yl)-3,4-dihydroisoquinolin-1(2H)-one]
Second: Cc1nccn1Cc1cc2c(c(-c3cn(C)nc3C(F)(F)F)c1)CCN(Cc1cccc(C3CC3)c1)C2=O [Example 234, 2-(3-Cyclopropylbenzyl)-7-((2-methyl-1H-imidazol-1-yl)methyl)-5-(1-methyl-3-(trifluoromethyl)-1H-pyrazol-4-yl)-3,4-dihydroisoquinolin-1(2H)-one]
The GI50 of the first is 6.6-fold higher: 1870 nM for the first, 283 nM for the second.

Work on `CCn1cc(-c2cc(Cn3ccnc3C#N)cc3c2CCN([C@@H](C)c2cc(OC)ccn2)C3=O)c(C(F)(F)F)n1` [Example 179] yielded a GI50 of 9640 nM.
